{"source": "patent US20220145264A1", "about": "“CULTURE MEDIUM FOR MAMMALIAN EXPANDED POTENTIAL STEM CELLS, COMPOSITION, AND METHODS THEREOF” (THE UNIVERSITY OF HONG KONG, priority 2019, published 2022)", "key": {"[1]": {"test_system": "H1-EPSCs", "test": "Requirement of individual culture components for hEPSCs (RT-qPCR, AP+ colony formation)", "assay_type": "cell-based, human", "conditions": "in the presence of 5.0 ng/ml", "experimental": "Porcine and human EPSC cultures were routinely maintained on STO feeders. STO feeder plates were prepared 3-4 days before passaging by thawing and plating the mitomycin C inactivated STO cells on 0.1% gelatinised plates at the density of ˜1.1×10^4 cells/cm^2. Porcine/human EPSC cells were maintained on STO feeder layers and enzymatically passaged every 3-5 days by a brief PBS wash followed by treatment for 3-5 minutes with 0.25% trypsin/EDTA (Gibco, Cat. No. 25500-054). The cells were dissociated and centrifuged (300 g×5 minutes) in M10 medium. M10: knockout DMEM (Gibco, Cat. No. 10829-018), 10% FBS (Gibco, Cat. No. 10270), 1× Glutamine Penicillin-Streptomycin (Thermo Fisher Scientific, Cat. No. 11140050) and 1×NEAA (Thermo Fisher Scientific, Cat. No. 10378-016). After removing supernatant, the porcine/human EPSCs were re-suspended and seeded in pEPSCM/hEPSCM supplemented with 5 μM ROCK inhibitor Y-27632 (Tocris, Cat. No. 1254). 5% FBS (Gibco, Cat. No. 10270) and 10% KnockOut Serum Replacement (KSR) (Gibco, Cat. No. 10828028) were added in pEPSCM and hEPSCM respectively to improve cells survive. 12-24 hours later, medium was switched to pEPSCM/hEPSCM only. Both pEPSCM and hEPSCM are N2B27 based media. N2B27 basal media (500 ml) was prepared by inclusion of the following components: 482.5 ml DMEM/F-12 (Gibco, Cat. No. 21331-020), 2.5 ml N2 supplement (Thermo Fisher Scientific, Cat. No. 17502048), 5 ml B27 supplement (Thermo Fisher Scientific, Cat. No. 17504044), 5 ml 1× Glutamine Penicillin-Streptomycin (Thermo Fisher Scientific, Cat. No. 11140-050), and 5 ml 1×NEAA (Thermo Fisher Scientific, Cat. No. 10378-016), 0.1 mM 2-mercaptoethanol (Sigma, Cat. No. M6250). pEPSCM (500 ml) was generated by adding the following small molecules and cytokines into 500 ml N2B27 basal media: 0.2 μM CHIR99021(GSK3i, TOCRIS, Cat. No. 4423), 1 μM WH-4-023 (SRC inhibitor, TOCRIS, Cat. No. 5413), 2.5 μM XAV939 (Sigma, Cat. No. X3004) or 2.5 μM IWR-1 (TOCRIS, Cat. No. 3532), […] Vitamin C (Sigma, Cat. No. 49752-100G), 10 ng/ml LIF (Stem Cell Institute, University of Cambridge. SCI) and 20 ng/ml ACTIVIN (SCI). hEPSCM (500 ml) was generated by adding the following components into 500 ml N2B27 basal media: 1.0 μM CHIR99021(GSK3 inhibitor, TOCRIS, Cat. No. 4423), 0.5 μM A-419259 (SRC inhibitor, TOCRIS, Cat. No. 3914), 2.5 μM XAV939 (Sigma, Cat. No. X3004), […] Vitamin C (Sigma, Cat. No. 49752-100G), 10 ng/ml LIF (SCI). Although both targeting SRC family kinases (SFKs), WH-4-023 and A419259 were preferred for porcine and human EPSCs, respectively. […] The concentrations of CHIR99021 for porcine and human EPSC cultures are 0.2 μM and 1.0 μM, respectively. […] 0.25 μM SB 590885 (BRAF inhibitor, R&D, Cat. No. 2650) and 2.0 μM SP600125 ([…], TOCRIS, Cat. No. 1496) were included to improve porcine and human EPSC cultures, but they were not essential for the routine maintenance of porcine and human EPSCs. All cell cultures in this paper were performed under conditions of 37° C. and 5% CO2 unless stated otherwise.\nTotal RNA was isolated using an RNeasy Mini Kit (Qiagen, Cat. No. 74106) for cultured cells or RNeasy Micro Kit (Qiagen, Cat. No. 74034) for sorted NANOS3-mCherry^+ cells. RNA was subsequently quantified and treated with gDNA WipeOut to remove genomic DNA. Complementary DNA (cDNA) was prepared using a QuantiTect Reverse Transcription Kit (Qiagen, Cat. No. 205311). RT-qPCR primers or TaqMan Gene Expression Assays (Life Technologies) are listed in Supplementary Table 10 and 11. ABsolute Blue qPCR ROX Mix (ABgene, Cat. No. AB4138B) were used for probe based qPCR assays and SYBR Green ROX qPCR Mastermix (Qiagen, Cat. No. 330523) were used for primer based qPCR assays. All qPCR reactions were performed on ABI 7900 HT Sequence Detection System (Life Technologies). Information on all primers and probes used for qPCR analysis are provided in Supplementary Table 10 and 11. Gene expression was determined relative to GAPDH using the […]. […]"}, "[2]": {"test_system": "H1-EPSCs", "test": "EB formation assay of H1-EPSCs, lineage gene expression", "assay_type": "cell-based, human", "conditions": "5.0 ng/ml supplemented in hEPSCM", "experimental": "Porcine and human EPSCs were trypsinised and seeded in gelatinised 6-well plates at a density of 4×10^6 cells/well for pre-differentiation. M15 media supplemented with 20 ng/ml ACTIVIN A (SCI) and 5 μM Rock inhibitor Y-27632 were used to culture the replated cells. The next day, the cells were detached using 0.25% trypsin/EDTA (Gibco, Cat. No. 25500-054) and plated to ultra-low cell attachment U-bottom 96-well plates (Corning, Cat. No. 7007) at a density of 5,000-6,000 cells/well in 200 μl M10 medium. After 7-8 days of growing, the EBs were collected for analysis. 0.25% (v/v) poly-vinyl alcohol (Sigma, Cat. No. 341584) was added in the medium to help cells aggregation.\nTotal RNA was isolated using an RNeasy Mini Kit (Qiagen, Cat. No. 74106) for cultured cells or RNeasy Micro Kit (Qiagen, Cat. No. 74034) for sorted NANOS3-mCherry^+ cells. RNA was subsequently quantified and treated with gDNA WipeOut to remove genomic DNA. Complementary DNA (cDNA) was prepared using a QuantiTect Reverse Transcription Kit (Qiagen, Cat. No. 205311). RT-qPCR primers or TaqMan Gene Expression Assays (Life Technologies) are listed in Supplementary Table 10 and 11. […] Gene expression was determined relative to GAPDH using the […]. […]"}}, "note": "“Also recorded” adds a separate entry of the source."}
{"substance": "ACTIVIN A: Human Recombinant ACTIVIN A cytokine", "values": [{"measurement": "cell survival at passaging", "setting": "[1]", "result": "substantially improved"}, {"measurement": "embryonic mesendoderm lineage differentiation / lineage gene expression in EBs", "setting": "[2]", "result": "stronger propensity for embryonic mesendoderm lineage differentiation; also recorded: substantially increased"}]}
